# Measurements from paper PMC12495306 (RSC Medicinal Chemistry, 2025).
# Experiments:
# HEK293 cells = test: Cell viability / cytotoxicity assay; type: cell-based, human; conditions: CellTiter-Glo, 18 h
# ARα2B = biological target: T1, ARα2B (Homo sapiens, UniProt P18089); test: ARα2B radioligand; type: binding; conditions: for inhibition at 10 µM: read-out: ARα2B binding (% inhibition at 10 μM)
# T1 sequence (P18089 1-450): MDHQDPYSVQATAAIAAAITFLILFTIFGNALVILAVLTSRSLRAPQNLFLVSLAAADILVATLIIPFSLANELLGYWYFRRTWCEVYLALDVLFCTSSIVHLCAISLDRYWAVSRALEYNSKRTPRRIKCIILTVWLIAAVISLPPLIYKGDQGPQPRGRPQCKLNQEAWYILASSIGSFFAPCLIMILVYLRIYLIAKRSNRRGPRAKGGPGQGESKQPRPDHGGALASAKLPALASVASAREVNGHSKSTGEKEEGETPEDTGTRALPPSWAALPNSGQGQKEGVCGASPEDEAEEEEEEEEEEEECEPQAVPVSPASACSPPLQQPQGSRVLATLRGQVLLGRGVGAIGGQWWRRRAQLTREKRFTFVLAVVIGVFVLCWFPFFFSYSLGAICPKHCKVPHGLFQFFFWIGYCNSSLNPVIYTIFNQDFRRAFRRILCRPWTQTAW
# ARα2A = biological target: T2, ARα2A (Homo sapiens, UniProt P08913); test: ARα2A radioligand; type: binding; conditions: ARα2A binding Ki, competition with 3H-Rauwolscinein; concentration response
# T2 sequence (P08913 1-465): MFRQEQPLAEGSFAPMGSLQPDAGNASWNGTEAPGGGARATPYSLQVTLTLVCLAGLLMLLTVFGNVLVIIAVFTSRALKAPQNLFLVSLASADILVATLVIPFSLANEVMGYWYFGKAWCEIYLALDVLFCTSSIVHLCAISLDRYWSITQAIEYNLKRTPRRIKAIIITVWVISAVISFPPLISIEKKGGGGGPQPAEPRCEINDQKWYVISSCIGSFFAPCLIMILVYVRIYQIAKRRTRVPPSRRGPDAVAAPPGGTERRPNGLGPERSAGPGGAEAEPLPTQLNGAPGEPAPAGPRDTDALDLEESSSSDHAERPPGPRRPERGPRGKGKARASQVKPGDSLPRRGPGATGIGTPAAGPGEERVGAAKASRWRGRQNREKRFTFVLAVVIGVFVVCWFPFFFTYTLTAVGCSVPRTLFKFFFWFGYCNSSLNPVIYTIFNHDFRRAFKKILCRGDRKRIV
# ARα2C = biological target: T3, ARα2C (Homo sapiens, UniProt P18825); test: ARα2C radioligand; type: binding
# T3 sequence (P18825 1-462): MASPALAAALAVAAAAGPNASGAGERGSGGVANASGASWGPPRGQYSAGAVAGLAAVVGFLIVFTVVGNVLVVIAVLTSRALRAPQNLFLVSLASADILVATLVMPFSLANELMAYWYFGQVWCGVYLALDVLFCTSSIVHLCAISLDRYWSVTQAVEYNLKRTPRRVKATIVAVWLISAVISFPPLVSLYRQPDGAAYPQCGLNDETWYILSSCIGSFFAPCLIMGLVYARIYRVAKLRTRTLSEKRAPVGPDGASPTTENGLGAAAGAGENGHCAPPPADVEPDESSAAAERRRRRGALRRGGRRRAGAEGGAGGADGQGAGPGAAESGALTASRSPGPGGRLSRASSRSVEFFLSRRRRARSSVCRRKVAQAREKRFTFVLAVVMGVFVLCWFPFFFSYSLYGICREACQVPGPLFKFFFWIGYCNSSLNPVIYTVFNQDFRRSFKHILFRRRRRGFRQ
# [1] = Aqueous solubility, shake flask method; type: physicochemical; conditions: pH 7.4, PBS, 24 h
smiles,measurement,setting,value
"C[C@H]1N=C(c2ccccc2F)c2cc(Br)ccc2NC1=O [Compound 1, (3R)-7-Bromo-5-(2-fluorophenyl)-3-methyl-1,3-dihydro-2H-1,4-benzodiazepin-2-one]",Cytotoxicity LD50,HEK293 cells,>300 µM
same,inhibition at 10 µM,ARα2B,-6%
"Cc1ccc(Nc2ccc3c(c2)C(c2ccccc2F)=NC(C)C(=O)N3)cc1 (stereo not shown) [Compound 3, 5-(2-Fluorophenyl)-3-methyl-7-(4-methylanilino)-1,3-dihydro-2H-1,4-benzodiazepin-2-one]",Cytotoxicity LD50,HEK293 cells,62 ± 15 µM
same,Ki,ARα2A,2.28 µM
same,Ki,ARα2B,4.64 µM
same,inhibition at 10 µM,ARα2B,61%
same,Ki,ARα2C,2.16 µM
"COc1ccc(Nc2ccc3c(c2)C(c2ccccc2F)=NC(C)C(=O)N3)cc1 (stereo not shown) [Compound 4, 5-(2-Fluorophenyl)-7-(4-methoxyanilino)-3-methyl-1,3-dihydro-2H-1,4-benzodiazepin-2-one]",Cytotoxicity LD50,HEK293 cells,87 ± 32 µM
same,Ki,ARα2A,2.07 µM
same,inhibition at 10 µM,ARα2B,41%
same,Ki,ARα2C,2.08 µM
"CC1N=C(c2ccccc2F)c2cc(Nc3ccc(Cl)cc3)ccc2NC1=O (stereo not shown) [Compound 5, 7-(4-Chloroanilino)-5-(2-fluorophenyl)-3-methyl-1,3-dihydro-2H-1,4-benzodiazepin-2-one]",Cytotoxicity LD50,HEK293 cells,87 ± 36 µM
same,Ki,ARα2A,2.08 µM
same,Ki,ARα2B,1.41 µM
same,inhibition at 10 µM,ARα2B,81%
same,Ki,ARα2C,1.64 µM
"CC1N=C(c2ccccc2F)c2cc(Nc3ccc([N+](=O)[O-])cc3)ccc2NC1=O (stereo not shown) [Compound 6, 5-(2-Fluorophenyl)-3-methyl-7-(4-nitroanilino)-1,3-dihydro-2H-1,4-benzodiazepin-2-one]",Cytotoxicity LD50,HEK293 cells,61 ± 10 µM
same,Ki,ARα2A,2.62 µM
same,inhibition at 10 µM,ARα2B,36%
"CSc1ccc(Nc2ccc3c(c2)C(c2ccccc2F)=NC(C)C(=O)N3)cc1 (stereo not shown) [Compound 7, 5-(2-Fluorophenyl)-3-methyl-7-((4-(methylthio)phenyl)amino)-1,3-dihydro-2H-1,4-benzodiazepin-2-one]",Cytotoxicity LD50,HEK293 cells,63 ± 12 µM
same,Ki,ARα2A,3.3 µM
same,inhibition at 10 µM,ARα2B,41%
same,Ki,ARα2C,2.41 µM
"CC1N=C(c2ccccc2F)c2cc(Nc3ccc(S(C)(=O)=O)cc3)ccc2NC1=O (stereo not shown) [Compound 8, 5-(2-Fluorophenyl)-7-(4-methanesulfonylanilino)-3-methyl-1,3-dihydro-2H-1,4-benzodiazepin-2-one]",Cytotoxicity LD50,HEK293 cells,>150 µM
same,inhibition at 10 µM,ARα2B,-5%
"CC1N=C(c2ccccc2F)c2cc(Nc3ccc(C#N)cc3)ccc2NC1=O (stereo not shown) [Compound 9, 7-(4-Cyanoanilino)-5-(2-fluorophenyl)-3-methyl-1,3-dihydro-2H-1,4-benzodiazepin-2-one]",Cytotoxicity LD50,HEK293 cells,83 ± 29 µM
same,inhibition at 10 µM,ARα2B,23%
"CC1N=C(c2ccccc2F)c2cc(Nc3ccc(O)cc3)ccc2NC1=O (stereo not shown) [Compound 10, 5-(2-Fluorophenyl)-7-((4-hydroxyphenyl)amino)-3-methyl-1,3-dihydro-2H-1,4-benzodiazepin-2-one]",Aqueous solubility,[1],197.9 ± 4.04 µM
same,Cytotoxicity LD50,HEK293 cells,135 ± 26 µM
same,Ki,ARα2B,4.18 µM
same,inhibition at 10 µM,ARα2B,52%
"COC(=O)c1ccc(Nc2ccc3c(c2)C(c2ccccc2F)=NC(C)C(=O)N3)cc1 (stereo not shown) [Compound 11, 5-(2-Fluorophenyl)-7-(4-methoxycarbonylanilino)-3-methyl-1,3-dihydro-2H-1,4-benzodiazepin-2-one]",Cytotoxicity LD50,HEK293 cells,88 ± 17 µM
same,Ki,ARα2A,2.25 µM
same,inhibition at 10 µM,ARα2B,44%
same,Ki,ARα2C,1.54 µM
"CC1N=C(c2ccccc2F)c2cc(Nc3ccc(C(F)(F)F)cc3)ccc2NC1=O (stereo not shown) [Compound 12, 5-(2-Fluorophenyl)-7-(4-trifluoromethylanilino)-3-methyl-1,3-dihydro-2H-1,4-benzodiazepin-2-one]",Cytotoxicity LD50,HEK293 cells,>150 µM
same,Ki,ARα2A,2.59 µM
same,inhibition at 10 µM,ARα2B,38%
"CC1N=C(c2ccccc2F)c2cc(Nc3ccccc3C#N)ccc2NC1=O (stereo not shown) [Compound 13, 7-(2-Cyanoanilino)-5-(2-fluorophenyl)-3-methyl-1,3-dihydro-2H-1,4-benzodiazepin-2-one]",Cytotoxicity LD50,HEK293 cells,>150 µM
same,inhibition at 10 µM,ARα2B,29%
"CC1N=C(c2ccccc2F)c2cc(Nc3ccccc3F)ccc2NC1=O (stereo not shown) [Compound 14, 7-(2-Fluoroanilino)-5-(2-fluorophenyl)-3-methyl-1,3-dihydro-2H-1,4-benzodiazepin-2-one]",Aqueous solubility,[1],26.0 ± 2.10 µM
same,Cytotoxicity LD50,HEK293 cells,90 ± 27 µM
same,Ki,ARα2A,2.24 µM
same,Ki,ARα2B,1.28 µM
same,inhibition at 10 µM,ARα2B,82%
same,Ki,ARα2C,2.14 µM
"CCc1ccccc1Nc1ccc2c(c1)C(c1ccccc1F)=NC(C)C(=O)N2 (stereo not shown) [Compound 16, 7-(2-Ethylanilino)-5-(2-fluorophenyl)-3-methyl-1,3-dihydro-2H-1,4-benzodiazepin-2-one]",Cytotoxicity LD50,HEK293 cells,>300 µM
same,inhibition at 10 µM,ARα2B,-2%
"Cc1cccc(Nc2ccc3c(c2)C(c2ccccc2F)=NC(C)C(=O)N3)c1 (stereo not shown) [Compound 18, 5-(2-Fluorophenyl)-3-methyl-7-(3-methylanilino)-1,3-dihydro-2H-1,4-benzodiazepin-2-one]",Cytotoxicity LD50,HEK293 cells,109 ± 12 µM
same,Ki,ARα2A,2.08 µM
same,Ki,ARα2B,1.67 µM
same,inhibition at 10 µM,ARα2B,87%
same,Ki,ARα2C,1.18 µM
"CC1N=C(c2ccccc2F)c2cc(Nc3cccc(C#N)c3)ccc2NC1=O (stereo not shown) [Compound 19, 7-(3-Cyanoanilino)-5-(2-fluorophenyl)-3-methyl-1,3-dihydro-2H-1,4-benzodiazepin-2-one]",Cytotoxicity LD50,HEK293 cells,165 ± 27 µM
same,Ki,ARα2B,3.25 µM
same,inhibition at 10 µM,ARα2B,57%
"Cc1ccc(Nc2ccc3c(c2)C(c2ccccc2F)=NC(C)C(=O)N3)c(C)c1 (stereo not shown) [Compound 20, 5-(2-Fluorophenyl)-7-(2,4-dimethylanilino)-3-methyl-1,3-dihydro-2H-1,4-benzodiazepin-2-one]",Cytotoxicity LD50,HEK293 cells,88 ± 22 µM
same,inhibition at 10 µM,ARα2B,33%
"CC1N=C(c2ccccc2F)c2cc(N(C)c3ccccc3)ccc2NC1=O (stereo not shown) [Compound 21, 5-(2-Fluorophenyl)-7-(N-methylanilino)-3-methyl-1,3-dihydro-2H-1,4-benzodiazepin-2-one]",Cytotoxicity LD50,HEK293 cells,158 ± 27 µM
same,inhibition at 10 µM,ARα2B,47%
"CC1N=C(c2ccccc2F)c2cc(N3CCOCC3)ccc2NC1=O (stereo not shown) [Compound 22, 5-(2-Fluorophenyl)-3-methyl-7-(morpholin-4-yl)-1,3-dihydro-2H-1,4-benzodiazepin-2-one]",Cytotoxicity LD50,HEK293 cells,>300 µM
same,inhibition at 10 µM,ARα2B,27%
"CC1N=C(c2ccccc2F)c2cc(N3CCCCC3)ccc2NC1=O (stereo not shown) [Compound 23, 5-(2-Fluorophenyl)-3-methyl-7-(piperidin-1-yl)-1,3-dihydro-2H-1,4-benzodiazepin-2-one]",Cytotoxicity LD50,HEK293 cells,>300 µM
same,inhibition at 10 µM,ARα2B,61%
"CC1N=C(c2ccccc2F)c2cc(NCc3ccccc3)ccc2NC1=O (stereo not shown) [Compound 24, 7-(Benzylamino)-5-(2-fluorophenyl)-3-methyl-1,3-dihydro-2H-1,4-benzodiazepin-2-one]",Cytotoxicity LD50,HEK293 cells,>150 µM
same,inhibition at 10 µM,ARα2B,46%
"CC1N=C(c2ccccc2F)c2cc(NC(C)(C)C)ccc2NC1=O (stereo not shown) [Compound 25, 7-(tert-Butylamino)-5-(2-fluorophenyl)-3-methyl-1,3-dihydro-2H-1,4-benzodiazepin-2-one]",Aqueous solubility,[1],393.6 ± 10.40 µM
same,Cytotoxicity LD50,HEK293 cells,>300 µM
same,inhibition at 10 µM,ARα2B,40%
"CC1N=C(c2ccccc2F)c2cc(NC3CCCCC3)ccc2NC1=O (stereo not shown) [Compound 26, 7-(Cyclohexylamino)-5-(2-fluorophenyl)-3-methyl-1,3-dihydro-2H-1,4-benzodiazepin-2-one]",Cytotoxicity LD50,HEK293 cells,>300 µM
same,inhibition at 10 µM,ARα2B,64%
"CC1N=C(c2ccccc2F)c2cc(N(C)C)ccc2NC1=O (stereo not shown) [Compound 27, 7-(Dimethylamino)-5-(2-fluorophenyl)-3-methyl-1,3-dihydro-2H-1,4-benzodiazepin-2-one]",Cytotoxicity LD50,HEK293 cells,>300 µM
same,inhibition at 10 µM,ARα2B,45%
